As a reminder, the IC50 is the concentration needed to halve the response being measured. By Ki is commonly meant the equilibrium dissociation constant of an inhibitor or competing ligand from its target. As a reminder, the Kd is the constant that tells how readily two partners part at equilibrium.

Experiment [1] has as its target T1, recombinant IDO1 (holo-IDO1; apo-IDO1) (Homo sapiens, UniProt P14902). Put plainly: fluorescence polarization competition against GSK1051. Format: binding. Background: Fluorescence polarisation rises when a labelled molecule tumbles more slowly, as on binding a larger partner.
In experiment [2] the target is T1, recombinant IDO1 (holo-IDO1; apo-IDO1). Description: NFK formation from D-TRP, Morrison tight binding fit. The class given is biochemical.
For experiment [3] the target is unchanged. Description: intrinsic TRP fluorescence quenching, equilibrium titration. Format: binding.

T1 sequence (P14902 whole entry): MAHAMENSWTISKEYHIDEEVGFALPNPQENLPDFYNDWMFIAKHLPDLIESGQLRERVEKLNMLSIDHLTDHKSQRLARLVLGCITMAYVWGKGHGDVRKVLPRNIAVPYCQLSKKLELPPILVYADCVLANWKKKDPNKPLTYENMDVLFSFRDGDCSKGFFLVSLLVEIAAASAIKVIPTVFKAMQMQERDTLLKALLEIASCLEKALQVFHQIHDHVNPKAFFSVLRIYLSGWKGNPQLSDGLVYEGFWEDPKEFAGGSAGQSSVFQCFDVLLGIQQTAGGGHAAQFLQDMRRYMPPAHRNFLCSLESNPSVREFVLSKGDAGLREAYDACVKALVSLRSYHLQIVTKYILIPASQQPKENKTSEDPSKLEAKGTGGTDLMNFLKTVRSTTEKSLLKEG

As for `C=CC1=C(C)C2=Cc3c(C=C)c(C)c4[n]3[Fe+][n]3c(c(C)c(CCC(=O)O)c3=CC3=NC(=C4)C(C)=C3CCC(=O)O)=CC1=N2` [heme], the IC50 in experiment [1] turned out to be 4.4 nM.
On to `CC(C)CN(CC(C)C)c1ccc([C@H](C)CC(=O)O)cc1Nc1nc(C(F)(F)F)ns1` [GSK5628], for which the inhibition constant Ki in experiment [2] was 10 nM. Further, the Kd in experiment [3] stood at 2.1 nM.

Values taken from doi:10.1101/324947v3 (biorxiv, 2020).
